Experimental findings from patent publication US8609692B2, “TRPV1 antagonists” (AbbVie Inc., priority 2008, dated 2013) are described below.

The target in data set [1] is T1, human TRPV1 receptor (hTRPV1) (Homo sapiens, UniProt Q8NER1).
T1 construct: expressed in transfected cells
The data set is described as follows: Capsaicin activation assay (Ca2+ influx, FLIPR). Type of data set: cell-based. To be noted: 0.05 μM capsaicin, 1321N1 cells expressing hTRPV1.

Data set [2] can be described thus: Rat telemetry protocol (core body temperature). Type of data set: in vivo. To be noted: core body temperature of rats at one hour post dosing (100 μmol/kg, p.o.), relative to vehicle.
Data set [3] addresses T2, human TRPV1 (Homo sapiens, UniProt Q8NER1).
T2 construct: expressed in transfected cells; host or cells: HEK293-F cells, transient transfection
The data set is described as follows: Acid activation assay - ratiometric calcium imaging of capsaicin- or acid-induced responses. In kind it is cell-based. As to conditions: Example 30 at 3 μM, HEK293-F cells expressing human TRPV1, FIG. 1; for block of TRPV1-mediated increase in intracellular calcium concentration in response to capsaicin: capsaicin 1 μM; for block of TRPV1-mediated increase in intracellular calcium concentration in response to acid: pH 5.5. The procedure:
The differential effects of TRPV1 antagonists on capsaicin- or acid-induced responses were verified by ratiometric calcium imaging. Transiently transfected HEK293-F cells expressing human TRPV1 were incubated with 5 μM Fura-2AM for 30 minutes at 37° C. Intracellular calcium concentration was measured on an imaging system consisting of the X-Cite™ 120 Fluorescence Illumination System (EXFO) and a Digital Camera (C4742-95, Hamamatsu Photonics) connected to an Olympus 1×71 microscope. Through the control of Slide Book 4.2 software, fluorescence was measured during excitation at 340 and 380 nm; the ratio of the fluorescence at both excitation wavelengths (F340/F380) was monitored. D-PBS, pH 7.4 (Invitrogen, catalog no. 14287) was used as the extracellular solution. Acidic buffer was prepared by titrating D-PBS, pH 7.4 with 7 N HCl to pH 5.5. Agonists and antagonists were prepared in the pH 7.4 or 5.5 solutions. Rapid solution switch was achieved by using a ValveLink system. […] Over the 2100-second time course, the cells were continuously perfused with D-PBS, pH7.4 or challenged sequentially with solutions containing Example 30 (3 μM), Example 30 (3 μM) plus capsaicin (1 μM), Example 30 (3 μM) plus acid (pH 5.5), acid (pH 5.5) alone, or capsaicin (1 μM) alone. The black bars above the traces designate addition and duration of solution applications. Spaces between horizontal bars represent periods in which cells were perfused with D-PBS, pH 7.4.
(Calcium assays in cells follow changes in intracellular calcium, usually with a dye or a luminescent sensor.)

pIC50: −log10 of the molar value.

T1 sequence (Q8NER1 whole entry): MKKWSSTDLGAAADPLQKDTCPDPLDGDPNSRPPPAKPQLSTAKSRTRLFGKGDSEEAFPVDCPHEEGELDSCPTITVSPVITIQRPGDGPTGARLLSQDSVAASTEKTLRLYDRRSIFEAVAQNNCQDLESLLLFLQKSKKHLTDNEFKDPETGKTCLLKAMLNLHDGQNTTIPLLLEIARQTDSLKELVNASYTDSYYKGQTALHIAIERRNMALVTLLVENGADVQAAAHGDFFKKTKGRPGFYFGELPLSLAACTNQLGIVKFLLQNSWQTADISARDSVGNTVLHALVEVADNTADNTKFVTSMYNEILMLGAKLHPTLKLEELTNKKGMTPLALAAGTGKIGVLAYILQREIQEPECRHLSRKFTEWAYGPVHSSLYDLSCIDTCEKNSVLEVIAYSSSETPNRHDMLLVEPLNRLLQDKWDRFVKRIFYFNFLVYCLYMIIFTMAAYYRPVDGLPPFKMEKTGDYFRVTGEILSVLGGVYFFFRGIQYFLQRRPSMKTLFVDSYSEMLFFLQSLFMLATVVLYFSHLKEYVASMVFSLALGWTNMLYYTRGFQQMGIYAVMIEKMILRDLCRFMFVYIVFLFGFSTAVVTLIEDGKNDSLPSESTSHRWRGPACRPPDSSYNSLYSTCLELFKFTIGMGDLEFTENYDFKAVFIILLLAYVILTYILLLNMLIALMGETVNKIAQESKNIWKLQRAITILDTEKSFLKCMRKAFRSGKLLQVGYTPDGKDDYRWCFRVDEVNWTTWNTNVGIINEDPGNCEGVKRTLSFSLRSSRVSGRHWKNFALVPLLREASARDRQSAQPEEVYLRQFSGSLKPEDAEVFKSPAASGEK
T2 sequence (Q8NER1 whole entry): as above

What is called pIC50 is the negative decadic logarithm of the IC50, by convention in mol/L. The low end stands for a large IC50, the high end for a small IC50. As to `CC1(C)C[C@@H](NC(=O)Nc2cccc3c2C[C@@H](O)CC3)c2ccc(F)cc2O1` [Example 31, N-[(4R)-7-fluoro-2,2-dimethyl-3,4-dihydro-2H-chromen-4-yl]-N′-[(7S)-7-hydroxy-5,6,7,8-tetrahydronaphthalen-1-yl]urea], the pIC50 in data set [1] was 7.70. The “Δ Temp” value in data set [2] turned out to be 1.0 °C. For the same molecule, in data set [3], the “block of TRPV1-mediated increase in intracellular calcium concentration in response to capsaicin” value is listed as “completely blocked” and the “block of TRPV1-mediated increase in intracellular calcium concentration in response to acid” value is on record as “completely blocked”.
The molecule `CC1(C)C[C@@H](NC(=O)Nc2cccc3c2C[C@H](O)CC3)c2ccc(F)cc2O1` [Example 30, N-[(4R)-7-fluoro-2,2-dimethyl-3,4-dihydro-2H-chromen-4-yl]-N′-[(7R)-7-hydroxy-5,6,7,8-tetrahydronaphthalen-1-yl]urea] gave a pIC50 in data set [1] of 7.77. In data set [2], the “Δ Temp” value came out at 1.1 °C. Also, in data set [3], the “block of TRPV1-mediated increase in intracellular calcium concentration in response to capsaicin” value is “completely blocked” and the “block of TRPV1-mediated increase in intracellular calcium concentration in response to acid” value was “completely blocked”.
In data set [1], `O=C(Nc1cccc2[nH]ncc12)N[C@@H]1CCOc2c1cccc2C(F)(F)F` [Example 63, N-1H-indazol-4-yl-N′-[(4R)-8-(trifluoromethyl)-3,4-dihydro-2H-chromen-4-yl]urea] had a pIC50 of 8.00. Further, the “Δ Temp” value in data set [2] stood at 1.0 °C.
The matching figures for `O=C(Nc1cccc2ccncc12)N[C@@H]1CC(CF)(CF)Oc2cc(C(F)(F)F)ccc21` [Example 93, N-[(4R)-2,2-bis(fluoromethyl)-7-(trifluoromethyl)-3,4-dihydro-2H-chromen-4-yl]-N′-isoquinolin-8-ylurea]: 7.49 and 1.1 °C.
`Cn1ncc2c(NC(=O)N[C@@H]3CC(C)(C)Oc4c3cccc4C(F)(F)F)cccc21` [Example 42, N-[(4R)-2,2-dimethyl-8-(trifluoromethyl)-3,4-dihydro-2H-chromen-4-yl]-N′-(1-methyl-1H-indazol-4-yl)urea] had a pIC50 in data set [1] of 7.70. Further, in data set [2], the “Δ Temp” value was 0.6 °C.
The matching figures for `CC1(C)C[C@@H](NC(=O)Nc2cccc3c2C[C@H](O)CC3)c2ccc(F)c(Cl)c2O1` [Example 108, N-[(4R)-8-chloro-7-fluoro-2,2-dimethyl-3,4-dihydro-2H-chromen-4-yl]-N′-[(7R)-7-hydroxy-5,6,7,8-tetrahydronaphthalen-1-yl]urea]: 7.68 and 1.2 °C.
For `Cc1cc2c(NC(=O)NC3CC(C)(C)Oc4c3ccc(N3CCCCC3)c4F)cccc2cn1` (stereo not drawn) [Example 117, N-(8-fluoro-2,2-dimethyl-7-piperidin-1-yl-3,4-dihydro-2H-chromen-4-yl)-N′-(3-methylisoquinolin-5-yl)urea], in that order: 7.09 and 1.0 °C.
